Source: ChEMBL document CHEMBL5034037, “Synthesis, Characterization, and Preclinical Evaluation of a Small-Molecule Prostate-Specific Membrane Antigen-Targeted Monomethyl Auristatin E Conjugate” (J Med Chem, 2021)
Calls of active or inactive are those of the source. The rule behind the calls is not given here. Where a SMILES comes first, the peptide text is derived from it. [ ]: non-standard residue; d: D form. The star is where a group is joined. Dolaproine = CO[C@@H]([C@@H]1CCCN1)[C@@H](C)C(=O)O; Dil = CC[C@H](C)[C@H](NC)[C@@H](CC(=O)O)OC; X2 = C[C@@H](N*)[C@@H](O)c1ccccc1; NMeV = CN[C@H](C(=O)O)C(C)C

Key:
[1] = Acute toxicity in Wistar rat assessed as decrease in porphyrin release from eye mucous membrane at 30 mg/kg, iv; type: organism-based; conditions: in vivo
[2] = system: PC-3; experiment: Cytotoxicity against human PC-3 cells not expressing PMSA measured using MTT assay; type: functional
[3] = Acute toxicity in iv dosed Wistar male rat assessed as maximum non-lethal dose; type: organism-based; conditions: in vivo
[4] = system: CWR22R; experiment: Cytotoxicity against human 22Rv1 cells expressing PMSA measured using MTT assay; type: functional
[5] = system: CWR22R; experiment: Induction of intracellular reactive oxygen species production in human 22Rv1 cells incubated for 1 hr measured at CC50 concentration by amperometric method; type: functional, cell-based
[6] = system: PC-3; experiment: Induction of intracellular reactive oxygen species production in human PC-3 cells incubated for 1 hr measured at CC50 concentration by amperometric method; type: functional, cell-based
[7] = Acute toxicity in Wistar rat assessed as decrease in motor activity; conditions: in vivo
[8] = Acute toxicity in iv dosed ICR male mouse assessed as maximum non-lethal dose; type: organism-based; conditions: in vivo
[9] = Acute toxicity in Wistar rat assessed as damage in liver at 30 mg/kg, iv; type: organism-based; conditions: in vivo
[10] = Acute toxicity in Wistar rat assessed as decrease in porphyrin release from nose mucous membrane at 30 mg/kg, iv; type: organism-based; conditions: in vivo

| Structure (SMILES) | Activity [1] | CC50 [2] [nM] | Activity [3] [mg/kg] | CC50 [4] [nM] | Activity [5] | Activity [6] | Activity [7] | Activity [8] [mg/kg] | Activity [9] | Activity [10] |
| --- | --- | --- | --- | --- | --- | --- | --- | --- | --- | --- |
| CC[C@H](C)[C@@H]([C@@H](CC(=O)N1CCC[C@H]1[C@H](OC)[C@@H](C)C(=O)N[C@H](C)[C@@H](O)c1ccccc1)OC)N(C)C(=O)[C@@H](NC(=O)[C@@H](NC)C(C)C)C(C)C (H-[NMeV]V[Dil][Dolaproine]-X2) | Toxic | 0.97 | 0.29 | 1.44 | Active | Active | Toxic | 0.1 | Toxic | Toxic |
| CC(=O)O[C@@]12CO[C@@H]1C[C@H](O)[C@@]1(C)C(=O)[C@H](O)C3=C(C)[C@@H](OC(=O)[C@H](O)[C@@H](NC(=O)OC(C)(C)C)c4ccccc4)C[C@@](O)([C@@H](OC(=O)c4ccccc4)[C@H]21)C3(C)C [DOCETAXEL ANHYDROUS] |  | 6.7 |  | 3.3 |  |  |  |  |  |  |
